Assay [1] deals with twenty-four-month-old C57 mice. In words: T maze test in aged mice. It is filed as in vivo. Particulars: 4 weeks continuous infusion by osmotic pump. As to the method:
The Water Maze was filled with water at least 24 hours prior to the test to allow it to reach room temperature. The water was dyed with white latex paint to make the animals visible for tracking and to allow for the use of a hidden platform. Two distinct visual cues were placed at the end of both T-arms of the T-Maze insert. On day 1 animals were given 4 trials each with a visible platform and a 30 min inter-trial interval. Animals were given 60 seconds to reach the platform. […] The goal arm was switched after every third mouse and both treatment groups had equal numbers of right and left turn goal arms. After each trial the mice were placed in an empty cage with blue pads and allowed to dry off under a red light lamp before being placed back into their home cage. Day 2 is the testing day, where animals are subjected to the same test of 4 trials each and a 30 min inter trial interval, but with a hidden platform. Animals were scored for right or wrong choice and for latency to reach the platform, and a binomial test was conducted to compare success rates between control and compound-treated mice. All trials were recorded using TopScan.
Twenty-four-month-old C57 mice were treated for 4 weeks with continuous infusion of Compound 1 or vehicle by Alzet osmotic pump, which were implanted to continuously deliver the two treatments. […]

The test system of assay [2] is doublecortin-positive cells in the hippocampus. In words: Histology: doublecortin (DCX) positive cells in hippocampus of aged mice. It is filed as in vivo, C57Bl/6 mice. The following applies: 18-month-old mice; four-week subcutaneous dosing by pump, versus IgG control. From the text:
Mice were taken down on the day following the end of behavior testing. Anesthesia was induced by 2,2,2-tribromoethanol and mice were subsequently perfused with 0.9% saline trans-cardially. The brains were dissected and cut sagitally in two even halves. One half was snap frozen for later use in dry ice, and the other was fixed in 4% paraformaldehyde in PBS for use in immunohistochemistry. After two days of fixation, the hemibrains were transferred to a 30% sucrose in PBS solution and changed after two days. Hemibrains were sectioned at 30 um on a microtome at −22° C. Brain sections were stored in cryoprotectant media at −20° C. until needed for staining. Blocking was done on free floating sections in the appropriate serum at 10% serum in PBST 0.5%. Primary antibodies were incubated overnight at 4 C. For light microscopy, the following antibodies were used in the given concentrations: DCX, 1:200, Santa Cruz BioTech, CD68, 1:1000. AbD Serotec. Secondary biotinylated antibodies were applied the next day at a concentration of 1:300. Staining visualization was achieved by reaction with the ABC kit (Vector) and diaminobenzidine (Sigma). Dehydration of the mounted slides was achieved using ethanol and xylene dips. Images were acquired on a Leica light microscope at 5× magnification. […]

For assay [3], the system named is aged C57Bl/6 mice. In words: Barnes maze test in aged mice. It is filed as in vivo. From the text: A modified Barnes maze was used to assess spatial working/episodic like learning and memory. The Barnes maze apparatus consists of a 122 cm diameter circular platform with 40 escape holes, each with a diameter of 5 cm placed along three rings of varying distances from the center of the platform. An escape box is attached to one of the holes and all holes are left uncovered. Bright lights and a fan are trained on the maze to provide adverse stimuli to encourage escape. Visual cues are placed on all four sides of the maze. Mice are given a series of 4 or 5 trials with inter-trial intervals of approximately 10 min, and the maximum duration of each trial is 90 or 120 sec. For each trial, mice are placed in the center of the maze. After 10 seconds, mice are allowed to explore, and the trial is ended if the mouse has found and entered an escape box before the end of the trial. Mice that cannot find the escape box are led to it and allowed to enter and given 30 sec to remain before being returned to its home cage. Training is done for 4 days. Data that is recorded and analyzed include velocity, escape latency, and distance moved.
Mice are divided into groups of 4-5 mice each, with balanced treatment groups. For example, Group 1 mice are run for 4 trials, then Group 2 mice are run for 4 trials, and so on until all groups finish testing. 70% ethanol is used to clean the arenas between trials.
Three-month-old or 16.5-month-old C57Bl/6 mice were dosed with either vehicle control or Compound 1 subcutaneously by Alzet osmotic pump for 4 weeks. During the last week of treatment, mice were subjected to behavior testing prior to perfusion on the last day of treatment. All mice received 5 consecutive days of BrdU injection at 150 mg/kg IP immediately prior to treatment start.
23-month-old C57Bl/6 mice were dosed with either vehicle control or Compound 1 subcutaneously twice daily for 21 days. Three weeks later, mice were subjected to behavior testing, and sacrificed the day following the last behavior test.

The mark [4] stands for this setting: 16.5-month-old mice, 4-week dosing by pump.
[5] abbreviates: 23-month-old mice, 30 mg/kg SQ BID 21 days, tested three weeks later.

Regarding `Cc1cc(C(=O)N(C)C)cc(NC(=O)[C@H]2CCC(=O)N2C2CCN(Cc3ccc(Cl)c(C)c3)CC2)n1` [Compound 1], in assay [1], the “T maze success versus vehicle (binomial test)” value is “succeeded more than vehicle-treated mice”. The “doublecortin-positive cells in the hippocampus” value in assay [2] is reported as “increased the numbers of doublecortin-positive cells”. Besides, in assay [3] (setting [4]), the “Barnes maze average of the latency for day 4 trials” value is “Trends for improved memory”; the “Barnes maze difference between the latencies of trials 13 and 16” value was “Trends for improved memory”; the “performance in the Barnes maze” value is reported as “trended towards improved performance”. Moreover, in assay [3] (setting [5]), the “Barnes Maze spatial memory performance” value was “performed significantly better” and the “velocity during the Barnes Maze test” value is given as “exhibited increased velocity”.

These data come from patent US11382907B2, “Methods and compositions for treating aging-associated impairments using CCR3-inhibitors” (Alkahest, Inc., priority 2017, dated 2022).
